Consider 18 compounds from patent US8895571B2, “Isoindolinone and pyrrolopyridinone derivatives as Akt inhibitors” (Incyte Corporation, priority 2011, dated 2014).

pIC50: −log10 of the molar value. A value given as a limit tells only on which side of the number the result lay.

One assay addresses T1, Full length Akt1 (Homo sapiens, UniProt P31749).
T1 construct: Full length Akt1 (cat #P2999); purchased PerkinElmer P2999
Kind of assay: In vitro Akt kinase enzymatic assay (HTRF), Akt1. In kind it is biochemical. Particulars: 0.4 nM Akt1, substrate solution with 5 mM ATP, 25° C. 1 hr. A digest of the protocol:
(§1)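 Full-length enzyme (0.4 nM Akt1 or 0.6 nM Akt2/Akt3 in the enzyme solution) was combined with a substrate solution of 0.1 μM ULight-Crosstide plus 5 mM ATP in pH 7.8 HEPES/MgCl2/DTT/Tween20 buffer and reacted 1 hr at 25° C. The EDTA stop contained Eu anti-phospho-Crosstide; IC50 was fitted from 11-point HTRF inhibition curves.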
Background: TR-FRET usually uses a lanthanide donor and a delayed reading to cut background.

The next assay concerns the target T2, Full length Akt2 (Homo sapiens, UniProt P31751).
T2 construct: Full length Akt1 (cat #P2999), Akt2 (cat #PV3184); purchased PerkinElmer PV3184
Kind of assay: In vitro Akt kinase enzymatic assay (HTRF), Akt2. In kind it is biochemical. Particulars: 0.6 nM Akt2, substrate solution with 5 mM ATP, 25° C. 1 hr. Summed up:
as §1

In the next assay the target is T3, Full length Akt3 (Homo sapiens, UniProt Q9Y243).
T3 construct: Full length Akt1 (cat #P2999), Akt2 (cat #PV3184), Akt3 (cat #PV3185); purchased PerkinElmer PV3185
Kind of assay: In vitro Akt kinase enzymatic assay (HTRF), Akt3. It counts as biochemical. Conditions: 0.6 nM Akt3, substrate solution with 5 mM ATP, 25° C. 1 hr. Summed up: as §1

The target in the next assay is T4, Full length PKA (Homo sapiens, UniProt P17612).
T4 construct: Full length PKA (cat #P2912); purchased Invitrogen P2912
Nature of the assay: PKA in vitro enzymatic assay (HTRF). Conditions: 0.035 nM enzyme solution, substrate solution with 5 mM ATP, 25° C. 1 hr. It counts as biochemical. Summed up: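 Reaction buffer was 50 mM HEPES pH 7.8, 10 mM MgCl2, 5 mM DTT and 0.005% Tween20. Enzyme solution was 0.035 nM, and substrate solution was 0.1 μM fluorescein-CREBtide with 5 mM ATP. After 1 h at 25°C, EDTA plus Tb anti-pS133 antibody was added, TR-FRET was read, and IC50 was fitted from 11-point, 3-fold % inhibition curves.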

The subject of assay [1] is LNCaP cells (human prostate tumor cell line). Nature of the assay: Akt LNCaP proliferation assay (MTS). In kind it is cell-based. Conditions: 2% fetal bovine serum, 48 hours, class symbols. Here is the method:
LNCaP cells (human prostate tumor cell line) were plated in 96 well plates (COSTAR, Corning, N.Y.) in 50 μL at 10,000 cells/well in RPMI (Media Tech, Manassas, Va.), 2% fetal bovine serum (Hyclone/Thermo, Logan, Utah) and incubated overnight at 37° C., 5% CO2. […] of compound solution were added at final concentrations of 1000 nM to 0.5 nM in 3 fold dilutions for IC50 determination and plates further incubated for 48 hours. 100 μL of Cell Titer 96® Aqueous reagent, from an MTS colorimetric method for determining the number of viable cells in proliferation (Cell titer 96, Promega, Madison, Wis.) was added for 2 hours at 37° C., 5% CO2. Each plate was mixed well and read on a SpectroMax M5 automated plate reader (Molecular Devices, Sunnyvale Calif.). The ability of the compound to inhibit proliferation was reported as the inhibitor concentration required for 50% inhibition (IC50 values) of total cell proliferation. See Table 8 for data related to compounds of the examples.

T2 sequence (P31751 whole entry): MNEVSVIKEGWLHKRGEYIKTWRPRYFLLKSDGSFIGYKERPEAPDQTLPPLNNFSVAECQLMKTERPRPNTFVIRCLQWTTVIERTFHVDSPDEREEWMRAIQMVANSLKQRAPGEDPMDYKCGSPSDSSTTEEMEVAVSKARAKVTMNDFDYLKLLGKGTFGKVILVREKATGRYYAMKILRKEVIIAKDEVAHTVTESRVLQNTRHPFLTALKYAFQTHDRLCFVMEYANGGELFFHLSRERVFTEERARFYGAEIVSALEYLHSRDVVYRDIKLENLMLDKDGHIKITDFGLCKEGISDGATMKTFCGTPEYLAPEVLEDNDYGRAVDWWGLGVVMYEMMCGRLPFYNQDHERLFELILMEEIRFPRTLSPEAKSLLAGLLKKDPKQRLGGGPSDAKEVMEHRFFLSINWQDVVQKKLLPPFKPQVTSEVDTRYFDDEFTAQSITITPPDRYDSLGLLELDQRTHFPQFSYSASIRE
T1 sequence (P31749 whole entry): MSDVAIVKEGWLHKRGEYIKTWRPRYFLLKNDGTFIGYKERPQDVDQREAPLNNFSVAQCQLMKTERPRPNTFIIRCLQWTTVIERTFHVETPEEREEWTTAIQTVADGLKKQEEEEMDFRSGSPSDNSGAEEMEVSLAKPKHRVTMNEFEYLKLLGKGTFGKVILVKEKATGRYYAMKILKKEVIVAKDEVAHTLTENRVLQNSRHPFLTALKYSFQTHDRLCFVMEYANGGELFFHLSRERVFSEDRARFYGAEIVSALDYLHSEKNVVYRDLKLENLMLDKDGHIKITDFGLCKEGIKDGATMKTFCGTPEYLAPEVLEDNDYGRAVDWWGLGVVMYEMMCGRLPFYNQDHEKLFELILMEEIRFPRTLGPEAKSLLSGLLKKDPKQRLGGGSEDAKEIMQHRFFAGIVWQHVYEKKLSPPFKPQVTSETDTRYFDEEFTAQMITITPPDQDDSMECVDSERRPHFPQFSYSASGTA
T3 sequence (Q9Y243 whole entry): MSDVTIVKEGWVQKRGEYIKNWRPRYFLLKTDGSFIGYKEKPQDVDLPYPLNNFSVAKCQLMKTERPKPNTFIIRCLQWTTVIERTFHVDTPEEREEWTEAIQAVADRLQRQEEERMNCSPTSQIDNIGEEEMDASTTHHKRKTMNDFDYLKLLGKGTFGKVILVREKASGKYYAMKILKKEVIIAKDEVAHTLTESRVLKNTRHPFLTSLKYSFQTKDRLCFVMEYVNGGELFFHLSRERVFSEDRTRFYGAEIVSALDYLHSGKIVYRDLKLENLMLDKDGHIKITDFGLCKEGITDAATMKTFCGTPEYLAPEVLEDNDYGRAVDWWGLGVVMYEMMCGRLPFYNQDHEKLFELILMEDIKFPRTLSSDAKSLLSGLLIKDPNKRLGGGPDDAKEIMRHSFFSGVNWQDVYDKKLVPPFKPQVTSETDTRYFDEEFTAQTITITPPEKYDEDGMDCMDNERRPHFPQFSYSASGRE

One may read the pIC50 as the negative decadic logarithm of the IC50, by convention in mol/L. Low values mean a large IC50, high ones a small IC50. As for `COCc1cnn(C)c1-c1ccc2c(c1)CN([C@H](CN)Cc1cc(F)cc(F)c1)C2=O` [Example 43, 2-[(1S)-2-amino-1-(3,5-difluorobenzyl)ethyl]-5-(4-methoxymethyl-1-methyl-1H-pyrazol-5-yl)isoindolin-1-one], the pIC50 against Full length Akt1 is above 6.30; at Full length Akt2 it was above 6.30; at Full length Akt3, above 6.30; on Full length PKA, below 5.30; in assay [1], above 6.30.

On to `Cn1ncc(Cl)c1-c1cc2c(cn1)C(=O)N([C@H](CN)Cc1cccc(F)c1)C2` [Example 92, 2-[(1S)-2-amino-1-(3-fluorobenzyl)ethyl]-6-(4-chloro-1-methyl-1H-pyrazol-5-yl)-1,2-dihydro-3H-pyrrolo[3,4-c]pyridin-3-one], for which the pIC50 was above 6.30 against Full length Akt1; above 6.30 against Full length Akt2; above 6.30 on Full length Akt3; 5.30 to 6.30 on Full length PKA; above 6.30 in assay [1].

As for `Cn1ncc(COC2CCC2)c1-c1cc2c(cn1)C(=O)N([C@H](CN)Cc1cccc(F)c1)C2` [Example 97, 2-[(1S)-2-amino-1-(3-fluorobenzyl)ethyl]-6-[4-(cyclobutoxymethyl)-1-methyl-1H-pyrazol-5-yl]-1,2-dihydro-3H-pyrrolo[3,4-c]pyridin-3-one], the pIC50 on Full length Akt1 was above 6.30; against Full length Akt2, above 6.30; against Full length Akt3 it was above 6.30; on Full length PKA it was below 5.30; in assay [1], above 6.30.

For `Cn1ncc(Cl)c1-c1ccc2c(c1)CN([C@H](CN)Cc1ccccn1)C2=O` [Example 66, 2-[(1S)-2-amino-1-(pyridin-2-ylmethyl)ethyl]-5-(4-chloro-1-methyl-1H-pyrazol-5-yl)isoindolin-1-one], the pIC50 against Full length Akt1 was above 6.30; on Full length Akt2 it was above 6.30; at Full length Akt3, above 6.30; against Full length PKA, 5.30 to 6.30; in assay [1] it was above 6.30.

Turning to `Cn1ncc(Cl)c1-c1cc2c(cn1)C(=O)N([C@H](CN)Cc1cc(F)cc(F)c1)C2` [Example 101, 2-[(1S)-2-amino-1-(3,5-difluorobenzyl)ethyl]-6-(4-chloro-1-methyl-1H-pyrazol-5-yl)-1,2-dihydro-3H-pyrrolo[3,4-c]pyridin-3-one], the pIC50 at Full length Akt1 was above 6.30; at Full length Akt2, above 6.30; at Full length Akt3, above 6.30; against Full length PKA, 5.30 to 6.30; in assay [1], above 6.30.

In the case of `CSCc1cnn(C)c1-c1ccc2c(c1)CN([C@H](CN)Cc1cc(F)cc(F)c1)C2=O` [Example 49, 2-[(1S)-2-amino-1-(3,5-difluorobenzyl)ethyl]-5-[4-(methylthio)methyl-1-methyl-1H-pyrazol-5-yl]isoindolin-1-one], the pIC50 against Full length Akt1 was above 6.30; at Full length Akt2 it was 5.30 to 6.30; against Full length Akt3 it was above 6.30; at Full length PKA it was below 5.30; in assay [1], 5.30 to 6.30.

In the case of `Cn1ncc(COC2CCC2)c1-c1ccc2c(c1)CN([C@H](CN)Cc1cccc(F)c1)C2=O` [Example 8, 2-[(1S)-2-amino-1-(3-fluorobenzyl)ethyl]-5-(4-cyclobutoxymethyl-1-methyl-1H-pyrazol-5-yl)isoindolin-1-one], the pIC50 was above 6.30 against Full length Akt1; above 6.30 at Full length Akt2; above 6.30 against Full length Akt3; 5.30 to 6.30 against Full length PKA; above 6.30 in assay [1].

`CCSCc1cnn(C)c1-c1ccc2c(c1)CN([C@H](CN)Cc1cc(F)cc(F)c1)C2=O` [Example 50, 2-[(1S)-2-amino-1-(3,5-difluorobenzyl)ethyl]-5-[4-(ethylthio)methyl-1-methyl-1H-pyrazol-5-yl]isoindolin-1-one]: the pIC50 on Full length Akt1 is above 6.30; on Full length Akt2 it was above 6.30; at Full length Akt3 it was above 6.30; on Full length PKA, below 5.30; in assay [1] it was above 6.30.

As for `Cn1nccc1-c1ccc2c(c1)CN([C@H](CN)Cc1cccnc1)C2=O` [Example 78, 2-[(1S)-2-amino-1-(pyridin-3-ylmethyl)ethyl]-5-(1-methyl-1H-pyrazol-5-yl)isoindolin-1-one], the pIC50 is above 6.30 against Full length Akt1; above 6.30 on Full length Akt2; 5.30 to 6.30 on Full length Akt3; below 5.30 on Full length PKA; above 6.30 in assay [1].

In the case of `CC(C)OCc1cnn(C)c1-c1ccc2c(c1)CN([C@H](CN)Cc1ccccc1)C2=O` [Example 58, 2-[(1S)-2-amino-1-benzyl-ethyl]-5-[4-(2-propoxymethyl)-1-methyl-1H-pyrazol-5-yl]isoindolin-1-one], the pIC50 was above 6.30 against Full length Akt1; above 6.30 at Full length Akt2; above 6.30 against Full length Akt3; below 5.30 at Full length PKA; above 6.30 in assay [1].

As to `Cn1ncc(Cl)c1-c1cnc2c(c1)CN([C@H](CN)Cc1cccc(F)c1)C2=O` [Example 90, 6-[(1S)-2-amino-1-(3-fluorobenzyl)ethyl]-3-(4-chloro-1-methyl-1H-pyrazol-5-yl)-5,6-dihydro-7H-pyrrolo[3,4-b]pyridin-7-one], the negative-log IC50 (pIC50) at Full length Akt1 was above 6.30; on Full length Akt2, above 6.30; against Full length Akt3 it was above 6.30; against Full length PKA it was below 5.30; in assay [1], above 6.30.

Turning to `Cn1ncc(Br)c1-c1ccc2c(c1)CN([C@H](CN)Cc1cc(F)cc(F)c1)C2=O` [Example 52, 2-[(1S)-2-amino-1-(3,5-difluorobenzyl)ethyl]-5-(4-bromo-1-methyl-1H-pyrazol-5-yl)isoindolin-1-one], the pIC50 on Full length Akt1 was above 6.30; against Full length Akt2 it was above 6.30; against Full length Akt3, above 6.30; against Full length PKA, 5.30 to 6.30; in assay [1], above 6.30.

Consider `Cn1nccc1-c1ccc2c(c1)CN([C@H](CN)Cc1ccccn1)C2=O` [Example 79, 2-[(1S)-2-amino-1-(pyridin-2-ylmethyl)ethyl]-5-(1-methyl-1H-pyrazol-5-yl)isoindolin-1-one], for which the pIC50 against Full length Akt1 was above 6.30; against Full length Akt2, above 6.30; at Full length Akt3, 5.30 to 6.30; against Full length PKA it was below 5.30; in assay [1] it was 5.30 to 6.30.

As to `CCn1nccc1-c1ccc2c(c1)CN([C@H](CN)Cc1cccc(F)c1)C2=O` [Example 127, 2-[(1S)-2-amino-1-(3-fluorobenzyl)ethyl]-5-(1-ethyl-1H-pyrazol-5-yl)isoindolin-1-one], the pIC50 at Full length Akt1 was above 6.30; against Full length Akt2, above 6.30; at Full length Akt3 it was above 6.30; against Full length PKA, below 5.30; in assay [1] it was above 6.30.

With `Cc1cnn(C)c1-c1ccc2c(c1)CN([C@H](CN)Cc1cccc(F)c1)C2=O` [Example 3, 2-[(1S)-2-amino-1-(3-fluorobenzyl)ethyl]-5-(4-methyl-1-methyl-1H-pyrazol-5-yl)isoindolin-1-one], the pIC50 was above 6.30 at Full length Akt1; above 6.30 on Full length Akt2; above 6.30 against Full length Akt3; 5.30 to 6.30 at Full length PKA; above 6.30 in assay [1].

Consider `Cn1nccc1-c1ccc2c(c1)CN([C@H](CN)Cc1cccs1)C2=O` [Example 80, 2-[(1S)-2-amino-1-(2-thienylmethyl)ethyl]-5-(1-methyl-1H-pyrazol-5-yl)isoindolin-1-one], for which the pIC50 was above 6.30 on Full length Akt1; above 6.30 against Full length Akt2; above 6.30 against Full length Akt3; 5.30 to 6.30 against Full length PKA; above 6.30 in assay [1].

Take `Cn1ncc(C#N)c1-c1ccc2c(c1)CN([C@H](CN)Cc1cccc(F)c1)C2=O` [Example 13, 2-[(1S)-2-amino-1-(3-fluorobenzyl)ethyl]-5-(4-cyano-1-methyl-1H-pyrazol-5-yl)isoindolin-1-one]: the pIC50 was above 6.30 at Full length Akt1; above 6.30 against Full length Akt2; above 6.30 against Full length Akt3; below 5.30 against Full length PKA; above 6.30 in assay [1].

Consider `CCCOCc1cnn(C)c1-c1ccc2c(c1)CN([C@H](CN)Cc1cc(F)cc(F)c1)C2=O` [Example 46, 2-[(1S)-2-amino-1-(3,5-difluorobenzyl)ethyl]-5-[4-(1-propoxymethyl)-1-methyl-1H-pyrazol-5-]isoindolin-1-one], for which the pIC50 against Full length Akt1 was above 6.30; against Full length Akt2, above 6.30; against Full length Akt3, above 6.30; on Full length PKA, 5.30 to 6.30; in assay [1], above 6.30.
